Key:
[1] = target: T1, Human Calpain 2/NS1 (Homo sapiens, UniProt P17655); assay: Calpain inhibition continuous fluorescence (FRET) assay, Human Calpain 2/NS1; assay type: biochemical; details: read-out: Human Calpain 2/NS1 IC50
T1 sequence (P17655 1-700): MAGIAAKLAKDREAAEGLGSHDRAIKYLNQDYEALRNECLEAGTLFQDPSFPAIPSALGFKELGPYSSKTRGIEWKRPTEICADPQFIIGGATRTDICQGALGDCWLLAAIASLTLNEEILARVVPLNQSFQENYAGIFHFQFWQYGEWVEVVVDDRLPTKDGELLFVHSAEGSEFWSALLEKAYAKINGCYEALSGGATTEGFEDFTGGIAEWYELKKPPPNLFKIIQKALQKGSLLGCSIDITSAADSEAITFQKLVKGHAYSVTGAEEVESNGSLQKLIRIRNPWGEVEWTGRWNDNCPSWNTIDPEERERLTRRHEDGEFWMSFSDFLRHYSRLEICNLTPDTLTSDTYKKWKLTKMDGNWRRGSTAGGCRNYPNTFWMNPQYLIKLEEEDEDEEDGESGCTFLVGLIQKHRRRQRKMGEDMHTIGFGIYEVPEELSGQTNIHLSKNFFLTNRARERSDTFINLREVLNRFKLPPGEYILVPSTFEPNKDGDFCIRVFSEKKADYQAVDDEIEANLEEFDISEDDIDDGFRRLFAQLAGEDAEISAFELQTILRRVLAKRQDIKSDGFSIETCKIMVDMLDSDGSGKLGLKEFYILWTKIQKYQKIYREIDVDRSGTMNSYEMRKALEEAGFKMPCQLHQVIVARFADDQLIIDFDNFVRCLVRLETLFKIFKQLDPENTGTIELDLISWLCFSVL
T1 sequence (P04632 1-268 partner): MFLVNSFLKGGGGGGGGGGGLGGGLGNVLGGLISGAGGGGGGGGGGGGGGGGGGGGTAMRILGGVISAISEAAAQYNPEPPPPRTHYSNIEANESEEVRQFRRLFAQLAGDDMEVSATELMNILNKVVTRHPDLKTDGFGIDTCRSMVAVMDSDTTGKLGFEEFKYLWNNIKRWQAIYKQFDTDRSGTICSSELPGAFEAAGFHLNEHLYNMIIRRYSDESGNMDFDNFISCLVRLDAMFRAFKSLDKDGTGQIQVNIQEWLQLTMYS
Summary of the method: (§1)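 Inhibitors were preincubated with calpain in 50 mM Tris pH 7.5, 100 mM NaCl, 1 mM DTT at 25C. Reactions were started with 5-FAM/QXL 520 FRET peptide substrate plus CaCl2 and read at 490/520 nm for 10 min. IC50s came from 4-parameter fits of slope rates (1-5 min).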

[2] = test system: Calpain activity in SH-SY5Y cells (SBDP-150); assay: SH-SY5Y Spectrin western blot assay (SBDP-150 breakdown product, A23187-induced); assay type: cell-based; details: Homo sapiens; SH-SY5Y cells, A23187-induced SBDP-150, western blot; read-out: SH-SY5Y Spectrin IC50
[3] = target: T2, Human Calpain 9/NS1 (Homo sapiens, UniProt O14815); assay: Calpain inhibition continuous fluorescence (FRET) assay, Human Calpain 9/NS1; assay type: biochemical; details: read-out: Human Calpain 9/NS1 IC50
T2 sequence (O14815 1-690): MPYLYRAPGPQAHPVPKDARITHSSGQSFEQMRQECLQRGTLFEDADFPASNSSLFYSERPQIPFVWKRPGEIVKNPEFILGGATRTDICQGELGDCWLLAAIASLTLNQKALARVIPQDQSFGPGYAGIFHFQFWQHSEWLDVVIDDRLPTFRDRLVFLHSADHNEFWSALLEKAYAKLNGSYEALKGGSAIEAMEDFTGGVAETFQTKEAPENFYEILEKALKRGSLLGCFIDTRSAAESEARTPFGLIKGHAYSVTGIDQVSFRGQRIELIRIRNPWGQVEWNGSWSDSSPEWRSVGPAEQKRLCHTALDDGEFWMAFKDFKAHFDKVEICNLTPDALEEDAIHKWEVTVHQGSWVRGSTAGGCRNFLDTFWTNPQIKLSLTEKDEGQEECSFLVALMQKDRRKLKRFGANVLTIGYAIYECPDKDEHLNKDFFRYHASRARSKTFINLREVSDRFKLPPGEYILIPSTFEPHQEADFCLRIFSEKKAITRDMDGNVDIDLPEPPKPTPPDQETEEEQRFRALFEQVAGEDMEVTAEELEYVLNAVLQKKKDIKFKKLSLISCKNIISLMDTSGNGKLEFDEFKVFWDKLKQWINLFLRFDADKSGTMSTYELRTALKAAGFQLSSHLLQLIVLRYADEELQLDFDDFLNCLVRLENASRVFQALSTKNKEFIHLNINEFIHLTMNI
T2 sequence (P04632 1-268 partner): T1 sequence (P04632 1-268 partner)
Summary of the method: as §1

[4] = target: T3, Human Calpain 1/NS1 (Homo sapiens, UniProt P07384); assay: Calpain inhibition continuous fluorescence (FRET) assay, Human Calpain 1/NS1; assay type: biochemical; details: read-out: Human Calpain 1/NS1 IC50
T3 sequence (P07384 1-714): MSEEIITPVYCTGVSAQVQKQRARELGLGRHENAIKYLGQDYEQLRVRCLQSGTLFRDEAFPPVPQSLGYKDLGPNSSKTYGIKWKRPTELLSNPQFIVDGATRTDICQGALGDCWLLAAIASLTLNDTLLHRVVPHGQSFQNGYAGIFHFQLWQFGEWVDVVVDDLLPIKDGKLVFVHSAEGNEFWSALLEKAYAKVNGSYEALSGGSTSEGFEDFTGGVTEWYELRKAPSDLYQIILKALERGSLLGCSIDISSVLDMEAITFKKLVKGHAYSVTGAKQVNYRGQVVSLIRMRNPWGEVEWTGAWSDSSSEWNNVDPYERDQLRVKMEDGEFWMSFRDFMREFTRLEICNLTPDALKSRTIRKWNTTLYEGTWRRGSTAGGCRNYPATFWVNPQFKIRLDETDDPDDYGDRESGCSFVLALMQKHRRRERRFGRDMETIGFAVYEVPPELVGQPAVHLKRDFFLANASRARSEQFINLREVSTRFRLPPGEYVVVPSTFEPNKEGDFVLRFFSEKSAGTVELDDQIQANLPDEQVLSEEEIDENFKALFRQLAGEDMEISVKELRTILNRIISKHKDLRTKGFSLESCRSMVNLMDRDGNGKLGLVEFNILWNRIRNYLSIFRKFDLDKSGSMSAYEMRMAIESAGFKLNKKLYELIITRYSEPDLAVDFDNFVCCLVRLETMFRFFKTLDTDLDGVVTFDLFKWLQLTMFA
T3 sequence (P04632 1-268 partner): T1 sequence (P04632 1-268 partner)
Summary of the method: as §1

[5] = test system: Calpain activity in SH-SY5Y cells; assay: SH-SY5Y + AMC fluorescence assay (Suc-LLVY-AMC substrate); assay type: cell-based; details: read-out: SH-SY5Y + AMC IC50

IC50 [1] [µM] | IC50 [2] [µM] | IC50 [3] [µM] | IC50 [4] [µM] | IC50 [5] [µM] | SMILES
< 3 | 10 to 25 | < 3 | < 3 | < 10 | Cn1cc(C(=O)NC(Cc2ccccc2)C(=O)C(N)=O)c(-c2cc(F)ccc2F)n1 (stereo not drawn) [Compound 518, N-(4-amino-3,4-dioxo-1-phenylbutan-2-yl)-3-(2,5-difluorophenyl)-1-methyl-1H-pyrazole-4-carboxamide]
< 3 | > 25 | < 3 | < 3 | 10 to 25 | Cn1cc(C(=O)NC(C=O)Cc2ccccc2)c(-c2ccccc2F)n1 (stereo not drawn) [Compound 520, 3-(2-Fluorophenyl)-1-methyl-N-(1-oxo-3-phenylpropan-2-yl)-1H-pyrazole-4-carboxamide]
< 3 | > 25 | < 3 | < 3 | < 10 | Cc1ccncc1-c1nn(C(F)F)cc1C(=O)NC(Cc1ccccc1)C(=O)C(N)=O (stereo not drawn) [Compound 522, N-(4-amino-3,4-dioxo-1-phenylbutan-2-yl)-1-(difluoromethyl)-3-(4-methylpyridin-3-yl)-1H-pyrazole-4-carboxamide]
< 3 | 10 to 25 | < 3 | < 3 | < 10 | Cc1ccc(C)c(-c2nn(C(F)F)cc2C(=O)NC(Cc2ccccc2)C(=O)C(N)=O)c1 (stereo not drawn) [Compound 524, N-(4-amino-3,4-dioxo-1-phenylbutan-2-yl)-1-(difluoromethyl)-3-(2,5-dimethylphenyl)-1H-pyrazole-4-carboxamide]
< 3 | > 25 | < 3 | < 3 | < 10 | NC(=O)C(=O)C(Cc1ccccc1)NC(=O)c1cn(C2CCCC2)nc1-c1ccccc1 (stereo not drawn) [Compound 525, N-(4-amino-3,4-dioxo-1-phenylbutan-2-yl)-1-cyclopentyl-3-phenyl-1H-pyrazole-4-carboxamide]
< 3 | > 25 | < 3 | < 3 | < 10 | NC(=O)C(=O)C(Cc1ccccc1)NC(=O)c1cn(C2CCC2)nc1-c1ccccc1 (stereo not drawn) [Compound 526, N-(4-amino-3,4-dioxo-1-phenylbutan-2-yl)-1-cyclobutyl-3-phenyl-1H-pyrazole-4-carboxamide]
< 3 | > 25 | < 3 | < 3 | < 10 | NC(=O)C(=O)C(Cc1ccccc1)NC(=O)c1cn(-c2ccccc2F)nc1-c1ccccc1 (stereo not drawn) [Compound 527, N-(4-amino-3,4-dioxo-1-phenylbutan-2-yl)-1-(2-fluorophenyl)-3-phenyl-1H-pyrazole-4-carb oxamide]
< 3 | > 25 | < 3 | < 3 | < 10 | NC(=O)C(=O)C(Cc1ccccc1)NC(=O)c1cn(-c2ccc(F)cc2)nc1-c1ccccc1 (stereo not drawn) [Compound 529, N-(4-amino-3,4-dioxo-1-phenylbutan-2-yl)-1-(4-fluorophenyl)-3-phenyl-1H-pyrazole-4-carb oxamide]
< 3 | > 25 | < 3 | < 3 | > 25 | Cn1cc(C(=O)NC(Cc2ccccc2)C(=O)C(N)=O)c(-n2ncc3ccccc32)n1 (stereo not drawn) [Compound 530, N-(4-amino-3,4-dioxo-1-phenylbutan-2-yl)-3-(1H-indazol-1-yl)-1-methyl-1H-pyrazole-4-carboxamide]
< 3 | 10 to 25 | < 3 | < 3 | > 25 | NC(=O)C(=O)C(Cc1ccccc1)NC(=O)c1cnoc1-c1ccccc1 (stereo not drawn) [Compound 531, N-(4-amino-3,4-dioxo-1-phenylbutan-2-yl)-5-phenylisoxazole-4-carboxamide]
< 3 | < 10 | < 3 | < 3 | < 10 | NC(=O)C(=O)C(Cc1c[nH]c2ccccc12)NC(=O)c1nsnc1-c1ccccc1 (stereo not drawn) [Compound 532, N-(4-amino-1-(1H-indol-3-yl)-3,4-dioxobutan-2-yl)-4-phenyl-1,2,5-thiadiazole-3-carboxamide]
< 3 | < 10 | < 3 | < 3 | < 10 | NC(=O)C(=O)C(Cc1ccccc1)NC(=O)c1cn(C(F)F)nc1-c1cccc2c1OC(F)(F)O2 (stereo not drawn) [Compound 546, N-(4-amino-3,4-dioxo-1-phenylbutan-2-yl)-3-(2,2-difluorobenzo[d][1,3]dioxol-4-yl)-1-(difluoromethyl)-1H-pyrazole-4-carboxamide]
< 3 | < 10 | < 3 | < 3 | < 10 | NC(=O)C(=O)C(Cc1ccccc1)NC(=O)c1cn(C(F)F)nc1-c1cccc2ccccc12 (stereo not drawn) [Compound 547, N-(4-amino-3,4-dioxo-1-phenylbutan-2-yl)-1-(difluoromethyl)-3-(naphthalen-1-yl)-1H-pyrazole-4-carboxamide]
< 3 | > 25 | < 3 | < 3 | > 25 | Cn1cc(C(=O)NC(Cc2ccccc2)C(=O)C(N)=O)c(-c2ccc3c(c2)OC(F)(F)O3)n1 (stereo not drawn) [Compound 548, N-(4-amino-3,4-dioxo-1-phenylbutan-2-yl)-3-(2,2-difluorobenzo[d][1,3]dioxol-5-yl)-1-methyl-1H-pyrazole-4-carboxamide]
< 3 | > 25 | < 3 | < 3 | < 10 | Cc1ccc(F)c(-c2oncc2C(=O)NC(Cc2ccccc2)C(=O)C(N)=O)c1 (stereo not drawn) [Compound 549, N-(4-amino-3,4-dioxo-1-phenylbutan-2-yl)-5-(2-fluoro-5-methylphenyl)isoxazole-4-carboxamide]
